This data set can be described thus: Human HepG2 cell viability assay in 384 well format. Further details: dose 125 nL, time 70.5 hour; concentration not given beside the values. To be noted: HepG2 cells, read-out: Inhibition. The format is toxicity, cell-based.
Take `O=C1[C@@H]2CN(c3ncnc4sccc34)C[C@]2(C(=O)O)CN1CC1CC1`: the cytotoxicity at 70.5 h was -11.3%.
As to `O=C(NC1CCCC1)NC1CCc2[nH]c(=O)ccc2C1` (stereo unspecified), the cytotoxicity at 70.5 h was -7.5%.
For `CC(C)=CCN1C[C@@H]2CN(C(=O)c3cnccc3C)C[C@]2(C(=O)O)C1`, the cytotoxicity at 70.5 h was -7.13%.
The value for `CC(Nc1cccc(Oc2ccc(C#N)cn2)c1)C(=O)NC1CC1` (stereo unspecified) was -6.13%.
The value for `Cc1ccc(C(=O)N2C[C@@H](C(=O)O)[C@H](c3ccncc3)C2)cc1F` was -5.6%; that for `COc1ccc2c(c1)C1(CCN(Cc3ccoc3)CC1)N(C)CC2` was -5.64%; that for `CCCC1(CO)CCCN(Cc2nccs2)C1` (stereo unspecified) was -4.2%.
The value for `Cc1c(C(=O)NC2(C#N)CCSC2)nnn1-c1ccccc1Cl` (stereo unspecified) was -5.68%.
On to `Cc1ccc(CN2CCOC3(CCCN(C(=O)c4ccco4)C3)C2)s1` (stereo unspecified), for which the cytotoxicity at 70.5 h is -10.7%.
Consider `Cn1cc(I)c(C(=O)NC2CCCCC2)n1`, for which the cytotoxicity at 70.5 h was 28.2%.
On to `Cn1cnnc1CNC(=O)Nc1cc(C(F)(F)F)c[nH]c1=O`, for which the cytotoxicity at 70.5 h is -7.22%.
The value for `Fc1ccc(CN2CCC3(CC2)CCN(Cc2nccs2)CC3)cc1` was 1.45%; that for `CC(C)OCc1ncn2c1CN(CCO)CCC2` was -0.995%; that for `O=C(Cc1ccc2c(c1)CCO2)N1CCN(c2ccccn2)CC1` was 2.5%.
As for `COc1ccc(C(=O)N(C)Cc2nnc3ccccn23)cc1`, the cytotoxicity at 70.5 h amounted to 10.4%.
As for `O=C(CCc1ccco1)Nc1cc(C(F)(F)F)c[nH]c1=O`, the cytotoxicity at 70.5 h is -8.18%.
`CS(=O)(=O)NCC1CCN(Cc2cc3ccccc3[nH]c2=O)C1` (stereo unspecified): the cytotoxicity at 70.5 h was -3.86%.
Turning to `CC1CCN(C(=O)c2cccc(CN3CCOCC3)c2)CC1`, the cytotoxicity at 70.5 h was -5.87%.
As for `CC1=C(C(=O)N(C)Cc2noc3c2CCCC3)C(C)NC(=O)N1` (stereo unspecified), the figure is -0.0225%; as for `CC(CNS(N)(=O)=O)Oc1cccc(Cl)c1` (stereo unspecified), -0.0153%.
Turning to `Cc1ccc(NC(=O)c2ncc(C(N)=O)cc2Cl)cc1F`, the cytotoxicity at 70.5 h was -87.6%.
Take `Cc1cc(CNC(=O)C(c2ccc(F)cc2)N(C)C)n[nH]1` (stereo unspecified): the cytotoxicity at 70.5 h turned out to be 7.79%.
On to `Cc1cc(CN2CCc3nn(C(C)C)c(=O)cc3C2)no1`, for which the cytotoxicity at 70.5 h came out at 5.97%.
In the case of `COCC(=O)N1CCCC1c1cccc(Cc2ccccc2F)n1` (stereo unspecified), the cytotoxicity at 70.5 h is -1.54%.
The value for `Cc1cc(C)n(-c2ccc(CNCc3ccc(F)cc3F)cn2)n1` was -11.6%; that for `Cc1cnc(N2CCC[C@@H]3CN(S(C)(=O)=O)C[C@@H]32)nc1` was -14.9%; that for `Cn1cc(CN2CCC3(CCCN(Cc4ccccn4)C3)CC2)cn1` was -5.87%.
On to `COc1ccc(OC)c(C(O)CNC(=O)Nc2cc(C)nn2C)c1` (stereo unspecified), for which the cytotoxicity at 70.5 h was -7.8%.
`O=C(NC1CC1)[C@H]1CN(Cc2ccc3c(c2)OCO3)C[C@H]2OCC[C@@H]12`: the cytotoxicity at 70.5 h is -1.23%.
Consider `CCOC(=O)N1CCC(NC(C)Cc2cc(C)n[nH]2)CC1` (stereo unspecified), for which the cytotoxicity at 70.5 h was -0.223%.
With `CN1C(=O)C(c2ccccc2)CC12CCN(CCO)CC2` (stereo unspecified), the cytotoxicity at 70.5 h is -14.6%.
For `CC(NC(=O)NCCNc1cccc(F)c1C#N)c1nccs1` (stereo unspecified), the cytotoxicity at 70.5 h was -2.26%.
Take `O=C(c1ccn(-c2ccc(F)cc2)n1)N(CCO)Cc1cccnc1`: the cytotoxicity at 70.5 h worked out at 15.5%.
Take `CC(C)Nc1nc2c(cc1C(=O)NCC1CC1)CCN(S(C)(=O)=O)CC2`: the cytotoxicity at 70.5 h is -6.91%.
For `N#Cc1ccc(CN2CCNC(=O)C2c2cccs2)cc1` (stereo unspecified), the cytotoxicity at 70.5 h was -3.15%.
As for `Cc1noc(-c2cnc(NCC3CCCO3)nc2-c2ccco2)c1C` (stereo unspecified), the figure is -7.96%.
The value for `CN(CC1CC1)C(=O)CN1CCCC1c1cnn(C)c1` (stereo unspecified) was 1.65%; that for `O=C(NCC1=CCCCC1)C(c1cccnc1)N1CCCC1` (stereo unspecified) was 31.3%.
For `CC(C)Cc1cc(CNc2nc(-c3cccnc3)nc3c2CNC3)no1`, the cytotoxicity at 70.5 h is -15.7%.
As for `CCc1nnc(CN2CCC(c3nc4cc(Cl)ccc4o3)CC2)o1`, the figure is -11.3%; as for `Cc1cc(C)n(CC2CCCN2CC(=O)Nc2nncs2)n1` (stereo unspecified), 30%.
The value for `O=C(Cc1cccnc1)N1CCCC2(CCN(C3CCOCC3)C2)C1` (stereo unspecified) was 9.18%; that for `C=Cc1ccc(C(=O)N2CCCC(Nc3ccc(OC)cc3)C2)cc1` (stereo unspecified) was -7.62%; that for `Cc1ccc(-c2cc(N)c(=O)n(C(C)C(=O)NCC3CCCCC3)n2)s1` (stereo unspecified) was 18%.
On to `CC(=O)N[C@H]1CCN(c2nc(C)nc3c2c(C)nn3C)C1`, for which the cytotoxicity at 70.5 h was -8.71%.
For `c1ccc(C2CCN(c3cncc(-n4cccn4)n3)CC2)cc1`, the cytotoxicity at 70.5 h is -4.22%.
With `O=C(O)c1cc(-c2ccccc2)ns1`, the cytotoxicity at 70.5 h is -20.2%.
For `Cn1c2c(ccc1=O)CC(NC(=O)Cc1ccsc1)CC2` (stereo unspecified), the cytotoxicity at 70.5 h was -2.49%.
For the compound `CS(=O)(=O)N1CCC(NC(=O)COc2ccc(Cl)c(Cl)c2)CC1`, the cytotoxicity at 70.5 h was -8.67%.
For `CC(C)NC(=O)N1CCN(S(C)(=O)=O)CC2(CNC(=O)C2)C1` (stereo unspecified), the cytotoxicity at 70.5 h was -17.9%.
As for `COCC(=O)N1CCC2(CC1)NC(=O)c1ccccc12`, the figure is 31.8%; as for `Cc1cnc(NC(=O)c2ccc(-n3ncc(C#N)c3N)cc2)s1`, 8.89%.
With `COc1ccc(OCC(=O)n2nc(C)c(C)c2C)cc1`, the cytotoxicity at 70.5 h is 3.85%.
On to `CCC[C@H]1CN(c2cncc(C(=O)N3CCCCC3)n2)C[C@@H]1N(C)C`, for which the cytotoxicity at 70.5 h was -3.35%.
In the case of `CNc1nc(N2CCN(Cc3ccsc3)C(CCO)C2)nc2c1CCC2` (stereo unspecified), the cytotoxicity at 70.5 h was -1.63%.
Turning to `Cc1cc(NC(=O)Nc2ccc3c(ccn3CCN(C)C)c2)n(C)n1`, the cytotoxicity at 70.5 h was 2.58%.
The value for `CCCNC(=O)NC(=O)CNC(C)(C)c1ccc2c(c1)OCO2` was -0.993%; that for `COCCN1CCN(Cc2ccc(F)c(C)c2)[C@H]2CS(=O)(=O)C[C@H]21` was 17.8%; that for `NS(=O)(=O)CCCC(=O)N1CCC2(CC1)c1ccccc1CC2O` (stereo unspecified) was -4.4%.
For `O=C(Cn1cccc2oc(=O)nc1-2)NCC1Cc2ccccc2O1` (stereo unspecified), the cytotoxicity at 70.5 h is -5.36%.
As for `O=C(O)c1cccc(CN2CCC(c3ccnc4ccnn34)CC2)c1`, the figure is -8.88%.
With `O=C(Nc1ccccc1)C1CN(Cc2ccco2)CC12CCOCC2` (stereo unspecified), the cytotoxicity at 70.5 h is -10.6%.
In the case of `COCCC(=O)N1CCC2(CCCN2Cc2ccccc2)C1` (stereo unspecified), the cytotoxicity at 70.5 h is -52.9%.
On to `CNC(=O)c1cccnc1N1CCN(Cc2ccccc2)C(CCO)C1` (stereo unspecified), for which the cytotoxicity at 70.5 h is -14.9%.
Take `Cn1ncc2c1NC(=O)CC2c1ccc(O)cc1` (stereo unspecified): the cytotoxicity at 70.5 h worked out at 7.25%.
In the case of `COc1ncccc1CN1CCC2(CC1)COCCN2C`, the cytotoxicity at 70.5 h was -8.7%.
`CC(=O)N1CC(c2n[nH]c3ncccc23)C1`: the cytotoxicity at 70.5 h came out at 28.9%.
The value for `COc1cc(/C=C/c2ncc(C(=O)O)s2)cc(Cl)c1O` was 7.03%; that for `Cc1nn(-c2ccc(C(=O)O)cc2)c2c1C(C(C)C)SCC(=O)N2` (stereo unspecified) was -2.14%.
Regarding `CCCc1nc(NCCc2ccccc2)c2c(n1)c(C)nn2CC`, the cytotoxicity at 70.5 h was -16.2%.
Consider `CSCC1CCN(C(=O)c2ccccc2NCc2cccnc2)C1` (stereo unspecified), for which the cytotoxicity at 70.5 h was -8.12%.

These data come from ChEMBL document CHEMBL3507680, “University of Dundee, Gates Library screen for HepG2 cell viability”.
